From the kinase profiling compilation of Christmann-Franck et al. (2016)

Assays:
Experiment in all cases: radiometric filter-binding kinase assay, Kinase HotSpot
Conditions in all cases: compound 0.5 µM; ATP 10 µM
IKBKB (human) = IKBKB (human) (UniProt O14920)
MAP4K5 (human) = MAP4K5 (human) (UniProt Q9Y4K4)
SGK3 (human) = SGK3 (human) (UniProt Q96BR1)
NTRK3 (human) = NTRK3 (human) (UniProt Q16288)
SYK (human) = SYK (human) (UniProt P43405)
NEK2 (human) = NEK2 (human) (UniProt P51955)
TEK (human) = TEK (human) (UniProt Q02763)
TEK (human), sequence (Q02763 whole entry, looked up): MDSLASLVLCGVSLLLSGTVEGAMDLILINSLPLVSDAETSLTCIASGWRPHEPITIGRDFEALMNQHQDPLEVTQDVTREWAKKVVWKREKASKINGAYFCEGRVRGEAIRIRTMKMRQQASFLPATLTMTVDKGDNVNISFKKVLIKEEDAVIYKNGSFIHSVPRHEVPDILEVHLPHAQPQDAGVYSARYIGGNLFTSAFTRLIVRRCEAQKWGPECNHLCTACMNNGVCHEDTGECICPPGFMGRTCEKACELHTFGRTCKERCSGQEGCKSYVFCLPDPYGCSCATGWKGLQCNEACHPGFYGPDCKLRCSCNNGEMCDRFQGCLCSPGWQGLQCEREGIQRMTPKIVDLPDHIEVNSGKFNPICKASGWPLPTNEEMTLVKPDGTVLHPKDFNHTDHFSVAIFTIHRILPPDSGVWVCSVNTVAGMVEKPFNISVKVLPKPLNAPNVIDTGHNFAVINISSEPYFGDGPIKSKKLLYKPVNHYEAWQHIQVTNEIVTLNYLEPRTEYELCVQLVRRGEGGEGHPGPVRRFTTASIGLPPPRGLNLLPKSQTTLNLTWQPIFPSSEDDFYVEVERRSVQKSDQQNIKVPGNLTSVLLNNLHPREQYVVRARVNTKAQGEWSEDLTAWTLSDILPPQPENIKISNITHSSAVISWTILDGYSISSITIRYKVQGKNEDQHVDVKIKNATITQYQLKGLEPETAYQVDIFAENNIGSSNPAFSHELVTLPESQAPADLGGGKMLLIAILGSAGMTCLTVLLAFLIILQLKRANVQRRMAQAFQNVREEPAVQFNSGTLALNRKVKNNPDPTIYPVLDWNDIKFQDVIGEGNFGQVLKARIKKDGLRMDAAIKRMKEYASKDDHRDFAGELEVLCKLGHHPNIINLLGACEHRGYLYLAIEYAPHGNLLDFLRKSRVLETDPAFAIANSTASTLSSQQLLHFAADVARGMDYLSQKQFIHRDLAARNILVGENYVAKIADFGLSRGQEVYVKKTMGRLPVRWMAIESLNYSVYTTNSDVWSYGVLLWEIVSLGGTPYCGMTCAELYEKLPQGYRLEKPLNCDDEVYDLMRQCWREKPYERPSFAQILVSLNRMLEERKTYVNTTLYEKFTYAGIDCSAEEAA

PAK2 (human) = PAK2 (human) (UniProt Q13177)
RET (human) = RET (human) (UniProt P07949)
BTK (human) = BTK (human) (UniProt Q06187)
BTK (human), sequence (Q06187 whole entry, looked up): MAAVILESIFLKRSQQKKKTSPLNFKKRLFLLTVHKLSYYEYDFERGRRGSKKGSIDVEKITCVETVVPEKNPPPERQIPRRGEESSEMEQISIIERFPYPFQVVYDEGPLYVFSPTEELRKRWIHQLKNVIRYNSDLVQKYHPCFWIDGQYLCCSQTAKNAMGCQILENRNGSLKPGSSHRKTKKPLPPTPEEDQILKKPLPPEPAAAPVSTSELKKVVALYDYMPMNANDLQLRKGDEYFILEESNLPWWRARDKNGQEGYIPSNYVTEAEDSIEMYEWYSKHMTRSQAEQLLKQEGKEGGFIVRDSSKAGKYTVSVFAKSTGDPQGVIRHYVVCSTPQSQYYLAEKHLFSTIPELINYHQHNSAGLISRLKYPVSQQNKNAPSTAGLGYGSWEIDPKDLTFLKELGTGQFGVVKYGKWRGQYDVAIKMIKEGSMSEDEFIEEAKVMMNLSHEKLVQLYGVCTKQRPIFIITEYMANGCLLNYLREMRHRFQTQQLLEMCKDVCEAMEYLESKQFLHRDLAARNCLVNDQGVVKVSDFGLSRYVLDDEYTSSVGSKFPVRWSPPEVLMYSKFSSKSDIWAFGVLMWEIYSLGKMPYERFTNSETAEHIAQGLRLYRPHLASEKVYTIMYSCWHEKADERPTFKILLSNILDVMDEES

RAF1 (human) = RAF1 (human) (UniProt P04049)
IRAK4 (human) = IRAK4 (human) (UniProt Q9NWZ3)
NTRK2 (human) = NTRK2 (human) (UniProt Q16620)
PIM3 (human) = PIM3 (human) (UniProt Q86V86)
ZAP70 (human) = ZAP70 (human) (UniProt P43403)
ULK1 (human) = ULK1 (human) (UniProt O75385)
CAMK1G (human) = CAMK1G (human) (UniProt Q96NX5)
AURKA (human) = AURKA (human) (UniProt O14965)
RPS6KA3 KD1 KD2 (human) = RPS6KA3 KD1 KD2 (human) (UniProt P51812)
CSNK2A1 (human) = CSNK2A1 (human) (UniProt P68400)
EPHB1 (human) = EPHB1 (human) (UniProt P54762)
MAPK14 (human) = MAPK14 (human) (UniProt Q16539)
FLT1 (human) = FLT1 (human) (UniProt P17948)
GRK4 (human) = GRK4 (human) (UniProt P32298)
GRK4 (human), sequence (P32298 whole entry, looked up): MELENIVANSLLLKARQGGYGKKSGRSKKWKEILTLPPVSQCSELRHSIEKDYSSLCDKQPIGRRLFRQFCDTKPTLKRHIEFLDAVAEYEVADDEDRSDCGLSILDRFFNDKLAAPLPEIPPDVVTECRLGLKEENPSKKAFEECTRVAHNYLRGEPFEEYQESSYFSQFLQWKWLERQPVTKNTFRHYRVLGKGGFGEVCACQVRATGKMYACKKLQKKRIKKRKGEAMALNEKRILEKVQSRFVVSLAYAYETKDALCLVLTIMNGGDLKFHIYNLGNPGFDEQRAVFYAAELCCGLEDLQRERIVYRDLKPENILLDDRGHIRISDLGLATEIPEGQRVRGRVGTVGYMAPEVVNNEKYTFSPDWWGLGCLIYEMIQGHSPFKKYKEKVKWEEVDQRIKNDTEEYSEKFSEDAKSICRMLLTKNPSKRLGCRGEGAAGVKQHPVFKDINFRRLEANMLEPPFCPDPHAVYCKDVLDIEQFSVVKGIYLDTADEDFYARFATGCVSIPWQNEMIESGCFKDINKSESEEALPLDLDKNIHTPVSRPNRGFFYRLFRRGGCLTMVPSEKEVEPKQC

WEE1 (human) = WEE1 (human) (UniProt P30291)
PAK4 (human) = PAK4 (human) (UniProt O96013)
PAK4 (human), sequence (O96013 whole entry, looked up): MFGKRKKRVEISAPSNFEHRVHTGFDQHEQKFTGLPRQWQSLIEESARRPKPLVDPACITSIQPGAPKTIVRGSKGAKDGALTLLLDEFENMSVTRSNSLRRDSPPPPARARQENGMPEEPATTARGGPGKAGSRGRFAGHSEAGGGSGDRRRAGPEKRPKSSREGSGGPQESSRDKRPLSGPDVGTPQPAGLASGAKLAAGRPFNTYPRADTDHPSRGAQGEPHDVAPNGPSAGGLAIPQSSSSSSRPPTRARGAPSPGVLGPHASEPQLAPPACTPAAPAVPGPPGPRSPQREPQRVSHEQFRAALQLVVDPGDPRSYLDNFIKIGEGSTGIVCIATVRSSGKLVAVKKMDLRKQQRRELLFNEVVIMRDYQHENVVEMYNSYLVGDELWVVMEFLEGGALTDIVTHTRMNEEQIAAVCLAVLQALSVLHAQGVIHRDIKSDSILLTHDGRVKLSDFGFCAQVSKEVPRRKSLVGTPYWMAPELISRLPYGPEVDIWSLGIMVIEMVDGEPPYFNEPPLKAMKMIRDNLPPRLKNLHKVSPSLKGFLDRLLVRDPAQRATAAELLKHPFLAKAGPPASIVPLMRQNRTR

ACVR1B (human) = ACVR1B (human) (UniProt P36896)
MAPK12 (human) = MAPK12 (human) (UniProt P53778)
MAPK1 (human) = MAPK1 (human) (UniProt P28482)
FES (human) = FES (human) (UniProt P07332)
STK3 (human) = STK3 (human) (UniProt Q13188)
CAMK4 (human) = CAMK4 (human) (UniProt Q16566)
KDR (human) = KDR (human) (UniProt P35968)
KDR (human), sequence (P35968 whole entry, looked up): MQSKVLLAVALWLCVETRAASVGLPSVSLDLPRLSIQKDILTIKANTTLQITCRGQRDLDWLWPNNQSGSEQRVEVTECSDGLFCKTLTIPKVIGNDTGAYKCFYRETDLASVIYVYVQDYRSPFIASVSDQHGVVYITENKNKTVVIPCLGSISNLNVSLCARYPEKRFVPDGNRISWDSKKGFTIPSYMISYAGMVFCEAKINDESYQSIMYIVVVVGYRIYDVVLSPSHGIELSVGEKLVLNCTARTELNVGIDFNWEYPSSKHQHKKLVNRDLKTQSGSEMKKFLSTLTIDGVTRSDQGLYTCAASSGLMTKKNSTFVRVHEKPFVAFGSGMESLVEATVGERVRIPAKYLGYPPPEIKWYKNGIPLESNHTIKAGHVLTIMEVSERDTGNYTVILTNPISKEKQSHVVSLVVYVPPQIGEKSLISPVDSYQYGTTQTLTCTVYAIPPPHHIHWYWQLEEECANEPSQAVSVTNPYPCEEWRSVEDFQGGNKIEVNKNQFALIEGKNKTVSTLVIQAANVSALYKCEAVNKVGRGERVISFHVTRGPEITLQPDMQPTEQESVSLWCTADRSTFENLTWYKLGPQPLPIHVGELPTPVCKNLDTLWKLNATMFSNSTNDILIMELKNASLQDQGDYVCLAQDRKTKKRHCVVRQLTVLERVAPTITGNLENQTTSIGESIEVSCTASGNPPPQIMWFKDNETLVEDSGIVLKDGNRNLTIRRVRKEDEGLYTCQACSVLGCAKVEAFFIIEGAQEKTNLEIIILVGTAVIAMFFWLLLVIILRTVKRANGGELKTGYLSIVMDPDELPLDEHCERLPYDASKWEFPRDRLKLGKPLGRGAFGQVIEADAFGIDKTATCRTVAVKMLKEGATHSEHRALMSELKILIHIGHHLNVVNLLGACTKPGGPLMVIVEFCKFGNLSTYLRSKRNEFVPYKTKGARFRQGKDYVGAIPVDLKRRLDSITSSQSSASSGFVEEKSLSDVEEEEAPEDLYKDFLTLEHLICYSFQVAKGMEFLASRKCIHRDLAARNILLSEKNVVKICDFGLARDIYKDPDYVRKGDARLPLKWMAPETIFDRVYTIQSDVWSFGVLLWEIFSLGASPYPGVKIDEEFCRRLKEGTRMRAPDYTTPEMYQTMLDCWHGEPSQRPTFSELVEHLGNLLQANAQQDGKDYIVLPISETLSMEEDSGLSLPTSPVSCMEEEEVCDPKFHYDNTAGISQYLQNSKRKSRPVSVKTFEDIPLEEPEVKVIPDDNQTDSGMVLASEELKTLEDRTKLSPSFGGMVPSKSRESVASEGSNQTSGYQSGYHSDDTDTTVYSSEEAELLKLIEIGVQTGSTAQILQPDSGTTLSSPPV

CDK1 CCNA2 (human) = CDK1 CCNA2 (human) (UniProt P06493+P20248)
CSK (human) = CSK (human) (UniProt P41240)
DAPK1 (human) = DAPK1 (human) (UniProt P53355)
TEC (human) = TEC (human) (UniProt P42680)
PAK7 (human) = PAK7 (human) (UniProt Q9P286)
PRKCB2 (human) = PRKCB2 (human) (UniProt P05771)
IKBKE (human) = IKBKE (human) (UniProt Q14164)
IKBKE (human), sequence (Q14164 whole entry, looked up): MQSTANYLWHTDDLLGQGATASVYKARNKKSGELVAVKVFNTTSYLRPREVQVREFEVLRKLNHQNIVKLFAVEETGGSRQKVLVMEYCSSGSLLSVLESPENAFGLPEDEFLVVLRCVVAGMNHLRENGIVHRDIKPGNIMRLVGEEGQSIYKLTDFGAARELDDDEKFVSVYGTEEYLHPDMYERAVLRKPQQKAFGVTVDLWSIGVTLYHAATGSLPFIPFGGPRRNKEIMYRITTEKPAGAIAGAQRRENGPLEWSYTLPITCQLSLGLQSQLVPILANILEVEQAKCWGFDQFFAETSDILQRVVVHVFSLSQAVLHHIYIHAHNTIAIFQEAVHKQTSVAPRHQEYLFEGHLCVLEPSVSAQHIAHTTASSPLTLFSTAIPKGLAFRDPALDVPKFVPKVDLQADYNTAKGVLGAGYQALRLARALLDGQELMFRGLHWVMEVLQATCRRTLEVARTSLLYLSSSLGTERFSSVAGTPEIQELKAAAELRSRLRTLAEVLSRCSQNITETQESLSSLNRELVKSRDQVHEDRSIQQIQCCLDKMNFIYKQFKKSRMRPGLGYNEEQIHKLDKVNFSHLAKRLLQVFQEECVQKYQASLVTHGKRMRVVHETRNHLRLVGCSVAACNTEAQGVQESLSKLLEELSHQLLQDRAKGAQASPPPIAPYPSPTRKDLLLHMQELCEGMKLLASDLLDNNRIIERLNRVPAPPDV

PRKCI (human) = PRKCI (human) (UniProt P41743)
HIPK4 (human) = HIPK4 (human) (UniProt Q8NE63)

## COc1cc2ncnc(Nc3ccc(Oc4ccccc4)cc3)c2cc1OC
IKBKB (human)
  residual activity: 106%
MAP4K5 (human)
  residual activity: 70.6%
SGK3 (human)
  residual activity: 101%
NTRK3 (human)
  residual activity: 99.7%
SYK (human)
  residual activity: 98.6%
NEK2 (human)
  residual activity: 111%
TEK (human)
  residual activity: 99.7%
PAK2 (human)
  residual activity: 78.7%
RET (human)
  residual activity: 40.6%
BTK (human)
  residual activity: 38.8%
RAF1 (human)
  residual activity: 88.9%
IRAK4 (human)
  residual activity: 112%
NTRK2 (human)
  residual activity: 103%
PIM3 (human)
  residual activity: 96.9%
ZAP70 (human)
  residual activity: 97%
ULK1 (human)
  residual activity: 89.5%
CAMK1G (human)
  residual activity: 101%
AURKA (human)
  residual activity: 79.2%
RPS6KA3 KD1 KD2 (human)
  residual activity: 97.8%
CSNK2A1 (human)
  residual activity: 114%
EPHB1 (human)
  residual activity: 108%
MAPK14 (human)
  residual activity: 103%
FLT1 (human)
  residual activity: 79.8%
GRK4 (human)
  residual activity: 97.1%
WEE1 (human)
  residual activity: 99.1%
PAK4 (human)
  residual activity: 98.3%
ACVR1B (human)
  residual activity: 97.5%
MAPK12 (human)
  residual activity: 105%
MAPK1 (human)
  residual activity: 99.8%
FES (human)
  residual activity: 99.6%
STK3 (human)
  residual activity: 121%
CAMK4 (human)
  residual activity: 97.8%
KDR (human)
  residual activity: 92.1%
CDK1 CCNA2 (human)
  residual activity: 92.2%
CSK (human)
  residual activity: 18.8%
DAPK1 (human)
  residual activity: 105%
TEC (human)
  residual activity: 43.3%
PAK7 (human)
  residual activity: 103%
PRKCB2 (human)
  residual activity: 92.8%
IKBKE (human)
  residual activity: 101%
PRKCI (human)
  residual activity: 108%
HIPK4 (human)
  residual activity: 91.8%
